# Laboratory results from patent US8026236B2, “6-phenyl-1H-imidazo[4,5-c]pyridine-4-carbonitrile derivatives” (N.V. Organon, priority 2009, dated 2011).
# Molecular target: recombinant human Cathepsin S (Homo sapiens, UniProt P25774)
# Assay: Cathepsin S assay procedure (inhibition of recombinant human Cathepsin S, fluorogenic substrate Z-Val-Val-Arg-AMC)
# Format: biochemical
# Conditions: pH5.5, 20 minutes, read-out: pIC50 (negative logarithm of the IC50 concentration) for inhibition of human cathepsin S (converted)
# Method: To a 384 well microtitre plate is added 10 μl of a 1000 solution of test compound in assay buffer (100 mM sodium acetate pH5.5, 5 mM EDTA, 5 mM dithiothreitol) with 10% dimethylsulfoxide (DMSO), plus 200 of 2500 solution of the substrate Z-Val-Val-Arg-AMC (7-amido-coumarine derivative of the tripeptide N-benzyloxy-carbonyl-Val-Val-Arg-OH) in assay buffer and 45 μl of assay buffer. 25 μl of a 2 mg/l solution of activated recombinant human cathepsin S, in assay buffer, is then added to the well, yielding a final inhibitor concentration of 10 μM. Enzyme activity is determined by measuring the fluorescence of the liberated aminomethylcoumarin at […] using 390 nm excitation, at 20 minutes. Percentage enzyme activity is calculated by comparison of this activity to that of a solution containing no inhibitor. Compounds are subsequently subjected to a dose response curve analysis in order to determine IC50 values for active compounds (where IC50 is the concentration of test compound causing 50% inhibition of the enzymatic activity). Compounds of the invention typically have a pIC50 (negative logarithm of the IC50 concentration) for inhibition of human cathepsin S of more than 6. Most compounds of the invention have a pIC50 of more than 7, such as exemplified by the compounds of examples 1a, 1b, 2a, 7d, 12a, 14a, 14b, 14c, 14d, 14e, 14f, 14g, 14h, 14i, 17, 18.
# recombinant human Cathepsin S, sequence (P25774 115-331): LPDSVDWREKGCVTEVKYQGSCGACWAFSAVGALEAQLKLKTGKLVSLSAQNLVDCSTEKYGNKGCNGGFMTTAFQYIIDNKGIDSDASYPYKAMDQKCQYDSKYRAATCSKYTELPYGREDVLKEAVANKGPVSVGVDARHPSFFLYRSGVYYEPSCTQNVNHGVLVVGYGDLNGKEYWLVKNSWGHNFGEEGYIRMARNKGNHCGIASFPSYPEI
smiles,measurement,value
CC(=O)Nc1cccc(COc2ccc(-c3cc4c(ncn4C)c(C#N)n3)cc2C(F)(F)F)c1 [Example 17],IC50,< 0.1 µM
